{"source": "paper PMC8058733", "about": "“A pain killer without analgesic tolerance designed by co-targeting PSD-95-nNOS interaction and α2-containning GABAARs” (Theranostics, 2021)", "key": {"locomotor activity": {"system": "locomotor activity", "test": "Open field test, locomotor activity", "assay_type": "in vivo", "conditions": "mice, (+)-borneol 45 mg/kg, i.v.", "method": "The locomotor activity was assessed by the open field test as described previously. The apparatus consisted of a large area composed of plastic, surrounded by walls that were 100 cm high. The floor was 50 × 50 cm for mice; the overall illumination was 25 lux. Each animal was gently placed in the center of the open field, and its behavior was videotaped. The distance the animals travelled was measured in a 5-min session using ANY-maze (Stoelting Co., IL, USA). After each trial, the plate was cleaned with 70% EtOH. No stressor was applied to the animals for at least 12 h before the test."}, "PSD-95-nNOS complex": {"biological_target": "T1, PSD-95-nNOS complex (Rattus norvegicus, UniProt P29476)", "T1 construct": "dorsal spinal cord tissues (L4 and L5) were lysed in 400 μl RIPA; from tissue; host or cells: rat dorsal spinal cord (L4 and L5), SNL model", "T1 sequence (P29476 whole entry, one chain of several)": "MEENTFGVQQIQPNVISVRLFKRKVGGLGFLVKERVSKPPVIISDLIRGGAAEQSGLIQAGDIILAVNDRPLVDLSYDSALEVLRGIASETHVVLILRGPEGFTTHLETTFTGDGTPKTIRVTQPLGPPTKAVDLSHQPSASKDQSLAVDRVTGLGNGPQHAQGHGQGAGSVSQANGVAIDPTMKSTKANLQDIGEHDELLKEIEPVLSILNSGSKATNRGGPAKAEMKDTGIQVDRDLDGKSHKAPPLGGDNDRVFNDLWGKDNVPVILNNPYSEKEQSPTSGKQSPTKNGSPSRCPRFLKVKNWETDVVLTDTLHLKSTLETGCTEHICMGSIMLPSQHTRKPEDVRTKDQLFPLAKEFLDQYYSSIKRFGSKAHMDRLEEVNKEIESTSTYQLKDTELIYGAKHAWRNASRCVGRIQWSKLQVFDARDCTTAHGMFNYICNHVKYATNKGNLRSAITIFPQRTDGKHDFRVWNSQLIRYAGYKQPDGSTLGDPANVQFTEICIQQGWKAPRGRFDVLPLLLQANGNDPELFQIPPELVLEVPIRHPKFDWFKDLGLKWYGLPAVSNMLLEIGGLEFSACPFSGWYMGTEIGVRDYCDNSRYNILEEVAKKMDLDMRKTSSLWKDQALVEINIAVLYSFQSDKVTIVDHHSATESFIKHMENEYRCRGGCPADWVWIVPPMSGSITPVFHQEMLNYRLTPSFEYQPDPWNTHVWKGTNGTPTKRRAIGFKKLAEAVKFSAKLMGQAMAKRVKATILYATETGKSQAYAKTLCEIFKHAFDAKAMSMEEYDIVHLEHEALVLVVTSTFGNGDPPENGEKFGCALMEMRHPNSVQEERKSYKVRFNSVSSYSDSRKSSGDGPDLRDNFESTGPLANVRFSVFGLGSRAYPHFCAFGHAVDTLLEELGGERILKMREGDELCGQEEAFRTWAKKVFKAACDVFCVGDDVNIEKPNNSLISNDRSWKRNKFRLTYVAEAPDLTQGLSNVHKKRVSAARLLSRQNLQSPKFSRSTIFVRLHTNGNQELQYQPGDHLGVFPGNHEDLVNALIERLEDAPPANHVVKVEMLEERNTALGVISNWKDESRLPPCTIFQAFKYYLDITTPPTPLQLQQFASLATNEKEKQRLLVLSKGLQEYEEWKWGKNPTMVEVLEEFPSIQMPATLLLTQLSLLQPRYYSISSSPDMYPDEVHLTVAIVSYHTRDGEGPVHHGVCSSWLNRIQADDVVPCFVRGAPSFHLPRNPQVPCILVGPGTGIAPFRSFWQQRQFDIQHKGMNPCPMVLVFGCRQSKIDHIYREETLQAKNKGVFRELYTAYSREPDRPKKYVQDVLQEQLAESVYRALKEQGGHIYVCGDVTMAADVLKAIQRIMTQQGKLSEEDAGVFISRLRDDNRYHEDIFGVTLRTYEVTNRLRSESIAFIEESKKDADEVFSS", "test": "Co-IP of PSD-95-nNOS complex levels in the spinal dorsal horn after SNL", "assay_type": "in vivo", "conditions": "SNL rats, (+)-borneol 5 mg/kg/d, i.v., × 3 d"}, "α1-containing GABAAR": {"system": "α1-containing GABAAR", "set-up": "method as in PMID 15763546", "conditions": "Xenopus laevis oocytes, high dose; cited from earlier work"}, "α2β3γ2 GABAARs": {"biological_target": "T2, α2β3γ2 GABAARs (Homo sapiens, UniProt P18507+P28472+P47869)", "T2 construct": "Shanghai Genechem Co.,Ltd (γ2 plasmid); host or cells: HEK293", "T2 sequence (P47869 29-451)": "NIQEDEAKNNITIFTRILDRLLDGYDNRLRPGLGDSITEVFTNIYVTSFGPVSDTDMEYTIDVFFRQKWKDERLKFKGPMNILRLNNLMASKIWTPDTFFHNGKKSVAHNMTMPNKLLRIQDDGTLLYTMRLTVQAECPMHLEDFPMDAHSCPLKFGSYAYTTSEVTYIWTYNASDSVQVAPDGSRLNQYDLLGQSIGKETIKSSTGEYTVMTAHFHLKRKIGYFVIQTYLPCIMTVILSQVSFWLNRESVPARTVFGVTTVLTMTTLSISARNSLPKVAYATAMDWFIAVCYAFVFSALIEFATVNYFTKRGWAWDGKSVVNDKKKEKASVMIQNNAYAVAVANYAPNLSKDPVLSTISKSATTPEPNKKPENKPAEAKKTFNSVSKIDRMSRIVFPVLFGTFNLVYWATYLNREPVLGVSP", "T2 sequence (P28472 26-473)": "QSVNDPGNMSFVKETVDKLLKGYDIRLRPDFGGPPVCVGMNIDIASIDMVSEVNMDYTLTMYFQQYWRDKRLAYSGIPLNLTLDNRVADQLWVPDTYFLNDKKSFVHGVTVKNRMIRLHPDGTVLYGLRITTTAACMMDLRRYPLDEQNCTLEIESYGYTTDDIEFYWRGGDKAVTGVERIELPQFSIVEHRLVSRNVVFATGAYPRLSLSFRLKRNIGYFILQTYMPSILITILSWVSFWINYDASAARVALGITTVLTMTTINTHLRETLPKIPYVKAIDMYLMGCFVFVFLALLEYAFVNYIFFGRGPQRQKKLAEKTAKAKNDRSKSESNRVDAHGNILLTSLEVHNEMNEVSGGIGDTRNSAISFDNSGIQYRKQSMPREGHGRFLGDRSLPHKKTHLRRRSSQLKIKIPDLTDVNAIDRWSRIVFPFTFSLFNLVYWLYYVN", "T2 sequence (P18507 40-475)": "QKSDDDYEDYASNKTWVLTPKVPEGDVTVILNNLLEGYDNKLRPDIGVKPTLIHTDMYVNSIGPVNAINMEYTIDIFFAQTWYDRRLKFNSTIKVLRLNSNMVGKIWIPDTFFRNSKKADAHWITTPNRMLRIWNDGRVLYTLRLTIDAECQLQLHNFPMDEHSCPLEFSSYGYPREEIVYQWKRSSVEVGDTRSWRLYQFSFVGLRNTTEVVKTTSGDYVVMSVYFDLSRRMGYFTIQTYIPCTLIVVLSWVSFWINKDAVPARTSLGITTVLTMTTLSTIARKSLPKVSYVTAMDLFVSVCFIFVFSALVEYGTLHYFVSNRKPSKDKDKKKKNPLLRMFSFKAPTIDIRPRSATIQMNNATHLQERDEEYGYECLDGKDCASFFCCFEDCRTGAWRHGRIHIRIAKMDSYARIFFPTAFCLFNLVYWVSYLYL", "test": "Potentiation of GABA-evoked currents, whole-cell patch-clamp in HEK293 cells transiently expressing recombinant GABAARs", "assay_type": "cell-based", "conditions": "α2β3γ2, n = 8", "method": "(§1) The affinities of drugs for α1, α2, α3 and α5 subunits were studied in the HEK293 cells (from FuHeng Biology, Shanghai, China) transiently expressing recombinant GABAARs (α1β2γ2, α2β3γ2, α3β3γ2 and α5β2γ2) as described previously. Briefly, the HEK293 cells were cultured in MEM medium supplemented with 10% FBS (fetal bovine serum, Gibico), 1% L-glutamine (Gibco) and 1% mycillin (Gibco). Before transfection, the cells were subcultured onto a 3.5cm dish at the ratio of 1:2. Then, the plasmids of α1/α2/α3/α5 (Origene), β2/β3 (Origene) and γ2 (Shanghai Genechem Co.,Ltd ) (5μg total DNA, ratio 1:1:2) were transfected using Fugene®HD transfection reagent (Promega). The γ2 subunit contained GFP from IRES (internal ribosomal entry site) and was used as a marker of the successful transfection. Cells were used for electrophysiology recording 18-36 hours after transfection.\n(§2) Electrophysiology recordings from HEK293 cells were performed as described previously. Briefly, whole-cell patch-clamp recordings of GABA-evoked currents were made at 30 °C with the holding potential of -60 mV. The internal solution (solution in recording electrodes) contained (in mM): 120 CsCl, 10 EGTA, 10 HEPES, 4 MgCl2, 0.5 GTP, 2 ATP and pH was adjusted to 7.4 with CsOH and the external solution contained (in mM): 150 NaCl, 10 KCl, 2 CaCl2, 1 MgCl, 10 HEPES, 10 Glucose and pH was adjusted to 7.4 with NaOH. ACSF was bubbled continuously with carbogen (95%O2 and 5%CO2). For the recording of GABA-evoked currents, the slides were transferred to a recording chamber, which was perfused with ACSF at a rate of 4 ml/min. The cells were viewed under upright microscopy (Olympus), and GFP-positive cells were selected to record the currents. The interval time between each different dose of GABA was controlled, 3 to 5 minutes to avoid the desensitization of GABAARs."}, "α3β3γ2 GABAARs": {"biological_target": "T3, α3β3γ2 GABAARs (Homo sapiens, UniProt P18507+P28472+P34903)", "T3 construct": "Shanghai Genechem Co.,Ltd (γ2 plasmid); host or cells: HEK293", "T3 sequence (P34903 29-492)": "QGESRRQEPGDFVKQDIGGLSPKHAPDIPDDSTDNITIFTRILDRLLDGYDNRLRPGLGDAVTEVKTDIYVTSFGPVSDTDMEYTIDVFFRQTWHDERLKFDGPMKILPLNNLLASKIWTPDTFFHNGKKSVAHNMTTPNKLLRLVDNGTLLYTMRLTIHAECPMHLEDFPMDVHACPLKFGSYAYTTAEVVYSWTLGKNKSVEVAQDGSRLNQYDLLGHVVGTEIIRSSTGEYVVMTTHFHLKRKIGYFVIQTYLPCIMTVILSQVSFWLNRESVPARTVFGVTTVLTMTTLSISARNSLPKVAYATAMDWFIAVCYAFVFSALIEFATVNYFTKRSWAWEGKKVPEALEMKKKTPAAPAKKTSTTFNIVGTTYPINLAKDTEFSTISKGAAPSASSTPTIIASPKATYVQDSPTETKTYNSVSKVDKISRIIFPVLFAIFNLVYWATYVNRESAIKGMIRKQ", "T3 sequence (P28472 26-473)": "as the sequence (P28472 26-473) above", "T3 sequence (P18507 40-475)": "as the sequence (P18507 40-475) above", "test": "Potentiation of GABA-evoked currents, whole-cell patch-clamp in HEK293 cells transiently expressing recombinant GABAARs", "assay_type": "cell-based", "conditions": "α3β3γ2, n = 8", "method": "as §1, §2"}, "α1β2γ2 GABAARs": {"biological_target": "T4, α1β2γ2 GABAARs (Homo sapiens, UniProt P14867+P18507+P47870)", "T4 construct": "Shanghai Genechem Co.,Ltd (γ2 plasmid); host or cells: HEK293", "T4 sequence (P14867 28-456)": "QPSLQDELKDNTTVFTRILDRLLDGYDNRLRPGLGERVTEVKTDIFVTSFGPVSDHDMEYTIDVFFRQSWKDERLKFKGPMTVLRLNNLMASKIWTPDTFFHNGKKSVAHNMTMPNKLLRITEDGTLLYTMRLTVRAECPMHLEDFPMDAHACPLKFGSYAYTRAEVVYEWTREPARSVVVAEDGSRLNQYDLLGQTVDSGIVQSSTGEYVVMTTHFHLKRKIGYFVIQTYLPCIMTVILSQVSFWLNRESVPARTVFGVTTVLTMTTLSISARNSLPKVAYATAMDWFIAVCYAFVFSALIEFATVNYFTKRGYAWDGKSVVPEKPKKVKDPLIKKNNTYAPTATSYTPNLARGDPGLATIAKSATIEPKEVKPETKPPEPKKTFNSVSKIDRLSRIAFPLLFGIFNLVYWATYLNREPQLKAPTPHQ", "T4 sequence (P47870 25-512 limits assumed)": "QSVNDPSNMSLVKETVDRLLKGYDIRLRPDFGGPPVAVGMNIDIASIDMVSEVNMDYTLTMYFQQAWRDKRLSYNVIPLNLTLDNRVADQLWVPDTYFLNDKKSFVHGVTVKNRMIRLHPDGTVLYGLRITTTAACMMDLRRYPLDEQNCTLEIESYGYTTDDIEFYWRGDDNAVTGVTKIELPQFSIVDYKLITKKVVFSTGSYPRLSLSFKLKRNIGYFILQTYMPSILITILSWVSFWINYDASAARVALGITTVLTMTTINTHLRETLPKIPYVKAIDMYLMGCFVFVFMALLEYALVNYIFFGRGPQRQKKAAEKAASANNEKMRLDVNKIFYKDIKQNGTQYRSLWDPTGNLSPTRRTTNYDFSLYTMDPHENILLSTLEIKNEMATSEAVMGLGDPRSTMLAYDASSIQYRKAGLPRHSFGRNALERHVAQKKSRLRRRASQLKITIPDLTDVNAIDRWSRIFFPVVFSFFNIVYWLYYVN", "T4 sequence (P18507 40-475)": "as the sequence (P18507 40-475) above", "test": "Potentiation of GABA-evoked currents, whole-cell patch-clamp in HEK293 cells transiently expressing recombinant GABAARs", "assay_type": "cell-based", "conditions": "α1β2γ2", "method": "as §1, §2"}, "α2 subunit of GABAARs": {"system": "α2 subunit of GABAARs", "test": "Western blot of GABAAR subunit levels in the spinal dorsal horn", "assay_type": "in vivo, rat", "conditions": "SNL rats, (+)-borneol 5 mg/kg/d, i.v., × 11 d", "method": "(§3) Western bolt analysis was performed as described previously. Briefly, the dorsal spinal cord (L4 and L5) was dissected from sham or SNL rats and homogenized in 400μl RIPA lysis buffer containing 1 μM pepstatin, 10 μg/ml aprotinin, 10 μg/ml leupeptin, 10 μg/ml and 10 μM phenylmethylsufonyl fluoride (PMSF). After lysis for 30 min in ice, samples were centrifuged at 12,000 g for 15 min. The protein content in each supernatant fraction was determined by using Bradford's solution, and samples containing equivalent amounts of protein were applied to 10% or 15% (10% for GABA(A)α2 and α3, 15% for BDNF) acrylamide denaturing gels (SDS-PAGE). The separated proteins were transferred onto a polyvinylidene fluoride membrane. The primary antibodies were as follows: rabbit anti-GABA(A)α2 (1:500; Millipore AB5948), rabbit anti-GABA(A)α3 (1:500; Millipore AB5594), rabbit anti-BDNF (1:1000; Thermo PA1-18357, RRID:AB_1070634). Internal control was performed using rabbit anti-β-actin (1:1000; Bioss bs-0061R, RRID: AB_10855480). Appropriate horseradish peroxidase-linked secondary antibodies were used for detection by enhanced chemiluminescence (Bio-Rad)."}, "α3 subunit of GABAARs": {"system": "α3 subunit of GABAARs", "test": "Western blot of GABAAR subunit levels in the spinal dorsal horn", "assay_type": "in vivo, rat", "conditions": "SNL rats, (+)-borneol 5 mg/kg/d, i.v., × 11 d", "method": "as §3"}, "BDNF": {"system": "BDNF", "test": "Western blot of BDNF levels in the spinal dorsal horn after SNL", "assay_type": "in vivo, rat", "conditions": "SNL rats, (+)-borneol 10 mg/kg, i.v., × 3 d", "method": "as §3"}, "[1]": {"system": "SNL-induced mechanical hyperalgesia", "test": "SNL-induced mechanical hyperalgesia, paw withdrawal threshold", "assay_type": "in vivo, rat", "conditions": "SNL rats, (+)-borneol 5 mg/kg/d, i.v., 11 consecutive days", "method": "Neuropathic pain was induced by segmental spinal nerve ligation (SNL). Animals were anesthetized with isoflurane. After the loss of righting reflex, the animal was fixed in the prone position. The SNL model was prepared as described previously: a median skin incision with about 3-5 cm length in L4-S2 level of the mouse back was made, the muscles next to the vertebrae till the sixth lumbar protruding were separated, the L5/L6 joint protruding on the right side was exposed and excised, and L6 processus transversus was partially split so that the L4-L6 spinal nerves on the right side were exposed. L5 nerve was gently isolated and tightly ligated with 5-0 silk thread. The wound was closed with 4-0 silk thread suture and covered with iodine solution. After nerve ligation, animals with signs of paw clonus or autotomy were excluded from further experiments.\nOsmotic minipumps (models 1004 for mouse and 2ML4 for rat; Alzet) and intrathecal cannulas (0.61 mm outer diameter and 0.28 mm inner diameter for mouse, 0.99 mm outer diameter and 0.58 mm inner diameter for rat) were filled with a solution of PBS. Cannulas were inserted into the subarachnoid space through the space between the L5 and L6 vertebrae and the tip of the catheter was implanted at the L5 spinal segmental level.\nFor rats, the threshold for 50% paw withdrawal (50% PWT) response to mechanical stimulus was assessed through a dynamic plantar apparatus (Ugo Basile, Italy). The 50% PWT refers to that the probability of paw withdrawal response to repeated mechanical stimulus is 50%. Rats were placed individually in a plastic cage (17 × 15 × 15 cm) with a wire mesh bottom which allowed full access to the paws. Behavioral accommodation was allowed for 15-20 min until cage exploration and major grooming activities ceased. A maximal cut-off of 50g/50s was set to prevent tissue damage. To record the PWT in response to mechanical stimulus, each rat was measured five times with a 5-min interval, and the mean value was recorded after excluding maximal and minimum values. The experimental procedures were performed in a double-blind manner."}, "[2]": {"system": "putative excitatory neurons of brain cortex", "test": "Potentiation of GABA-evoked currents in acute brain cortex slices", "assay_type": "cell-based", "conditions": "Neuron; rat brain cortex slices, n = 12"}}, "data": [{"smiles": "CC1(C)[C@@H]2CC[C@@]1(C)[C@@H](O)C2", "note": "[(+)-borneol]", "values": [{"measurement": "Locomotor activity, distance travelled during 5 min", "setting": "locomotor activity", "result": "without BZDs-associated behavioral effects"}, {"measurement": "PSD-95-nNOS complex level in the SDH", "setting": "PSD-95-nNOS complex", "result": "increased nNOS-PSD-95 interaction in the SDH significantly"}, {"measurement": "Modulation of α1-containing GABAAR", "setting": "α1-containing GABAAR", "result": "can positively modulate α1-containing GABAAR expressed in Xenopus laevis oocytes at high dose"}, {"measurement": "Emax", "setting": "α2β3γ2 GABAARs", "result": "122 ± 11", "unit": "%"}, {"measurement": "Emax", "setting": "α3β3γ2 GABAARs", "result": "109 ± 6.05", "unit": "%"}, {"measurement": "Effect on GABA-evoked currents of α1-containing GABAAR (in words)", "setting": "α1β2γ2 GABAARs", "result": "no effect on GABA-evoked currents as high as 10 μM"}, {"measurement": "α2 subunit of GABAARs expression in the SDH", "setting": "α2 subunit of GABAARs", "result": "decreased α2 and α3 subunits of GABAARs expressions"}, {"measurement": "α3 subunit of GABAARs expression in the SDH", "setting": "α3 subunit of GABAARs", "result": "decreased α2 and α3 subunits of GABAARs expressions"}, {"measurement": "SNL-induced BDNF expression in the SDH", "setting": "BDNF", "result": "significantly decreased SNL-induced BDNF expression in the SDH"}, {"measurement": "Analgesic tolerance, mechanical hyperalgesia", "setting": "[1]", "result": "caused analgesic tolerance development rapidly"}, {"measurement": "EC50", "setting": "[2]", "result": "0.4236 ± 0.0014", "unit": "nM"}, {"measurement": "Emax", "setting": "[2]", "result": "63.1 ± 3.4", "unit": "%"}]}]}
